Measurements from patent US8535731B2, “Use of extracts of the Cassia alata plant” (BASF Beauty Care Solutions France S.A.S., priority 2000, dated 2013).

Tested on: human keratinocytes
Experiment: Inhibition of apoptosis induced by growth factor deficiency, cell count and BrdU ELISA of cytoplasmic DNA fragments
Type: cell-based
Conditions: 30 ng/ml, percent of control
Experimental: The ability of the plant extracts of Cassia alata to prevent apoptosis induced by a deficiency of growth factors in human skin cells was investigated. The test was conducted in vitro on human fibroblasts and human keratinocytes. The human cells were cultivated in a nutrient medium (DMEM=Dulbecco […] from Life Technologie S.a.r.l.) containing 10% of foetal calf serum (from Dutcher). Bromodeoxyuridine (BrdU) was added to this nutrient medium. It was incorporated in the DNA and was subsequently used to detect the DNA fragments in the cytoplasm. After two days' incubation, the nutrient medium was replaced by nutrient medium (DMEM) with no foetal calf serum. The active substance to be tested was added. […] For comparison, a cell sample was incubated without any active substance to be tested (quantities and concentrations shown in Tables 5 and 6).
After incubation for one or two days at 37° C., the cells were recovered by trypsination using the Dunnebacke and Zitcer method described in Cell and Tissue Culture, Ed.: J. Paul, Churchill Livingstone, 1975, p. […] After the trypsin treatment, the cells were centrifuged and counted. The BrdU content in DNA fragments from the cytoplasm was then determined by the ELISA Test (ELISA Kit from Roche). […]

EGF: known growth factor Epidermal Growth Factor, polypeptide of 53 amino acids
Cell counting: 121% | Content of DNA fragments in the cytoplasm: 32%
